Here are results for twelve molecules from patent publication US9587035B2, “Assay for benzylpiperazine and metabolites” (Randox Laboratories Limited, priority 2012, dated 2017).

The subject of data set [1] is polyclonal antibodies (antiserum raised to Immunogen II), detecting agent Hapten 1-HRP. The experiment in a line: Biochip competitive immunoassay (antibody characterisation, cross-reactivity). The data set is classed as binding, sheep. The settings on record: for % Cross-reactivity: CR based on 100% for 1-benzylpiperazine, detecting agent derived from Hapten-1, % CR = IC50 1-benzylpiperazine/IC50 CR x 100; for IC50: detecting agent derived from Hapten-1, competitive assay format. The procedure: Pre-immunisation blood samples were collected from 16-month-old female Suffolk sheep. The immunisation mixture was prepared by adding 2 mg of immunogen prepared in PBS at a ratio of 50% lmmunogen/PBS with 50% Freund's Complete adjuvant (Sigma, Product Number—F5881) and emulsifying the mixture to prepare the final product for immunisation. On Day 0, each sheep was immunized intramuscularly with 1 ml of the mixture described above, with 2-[4-(piperazin-1-yl-methyl)phenoxy]acetic acid conjugated to a carrier protein bovine thyroglobulin (BTG) (as in example 6 above). Subsequent boosts (a total of 20 boosts) were administered intramuscularly to each sheep every 30 days. Freund's complete adjuvant (Sigma, Product Number—F5881) was used for primary immunizations and Freund's incomplete adjuvant (Sigma product Number—F5506) was used for all subsequent injections. Routine bleeds were taken between boosts to monitor the antibody titre and sensitivity, using hapten 1 conjugated to Horseradish peroxidase in a competitive ELISA, testing cross reactivity to 1-Benzylpiperazine and 4-OH benzylpiperazine.
Once the antibody titres were assessed as meeting the required performance criteria i.e. there was no significant increase in antibody titre and a plateau had been reached in the % displacement profile, antibodies were then evaluated by competitive immunoassay. They were first immobilized on a biochip platform (9 mm×9 mm) (Randox Laboratories Ltd.), which was the vessel for the immunoreactions. The semi-automated bench top analyser Evidence Investigator was used (EV3602, Randox Laboratories Ltd., Crumlin, UK, patents-EP98307706, EP98307732, EP0902394, EP1227311, EP1434995 and EP1354623). The assay principle was based on competition for binding sites of the polyclonal antibodies between free antigen (1-Benzylpiperazine and other cross-reactants) and labelled conjugate (Hapten 1-HRP, prepared as in example 6). Assay dilutent (155 μl), calibrator/1-benzylpiperazine or potential cross-reactant (25 μl) followed by Hapten 1-HRP conjugate (120 μl) were added to the appropriate biochip. The biochips were then incubated for 30 minutes at 30° C. on a thermo-shaker set at 370 rpm. The biochips were then subjected to 2 quick wash cycles using the wash buffer provided, followed by 4×2 minute wash cycles. 250 μl of signal (1:1 luminol+peroxide, v/v) was then added to each biochip, and after 2 minutes the biochip carrier was imaged in the Evidence Investigator analyser. The system incorporates dedicated software to automatically process, report and archive the data generated (details can be found in FitzGerald, S. P. et al, Clin. Chem. 51(7); 1165-1176; 2005).
Calibration curves were generated using the Biochip based immunoassay as described above. The IC50 was calculated from the graphs by taking 50% of the signal from the zero calibrator and reading the corresponding value on the x-axis, equivalent to the concentration of unlabelled ligand which reduces specific binding of labelled ligand by 50%. Specificity was also tested against a range of related analytes (Table 1). Cross-reactivity was calculated according to the following formula: % CR=IC50, 1-benzylpiperazine/IC50, CR×100 where % CR is the percentage cross-reactivity, IC50, 1-benzylpiperazine is the concentration of 1-benzylpiperazine that causes 50% displacement of signal and IC50, CR is the concentration of 1-benzylpiperazine/metabolites/structurally-related molecules that causes 50% displacement of signal.

For data set [2] the following is noted: cited from earlier work.
In a further data set the test system is MDMA immunoassay. The settings on record: commercial MDMA immunoassay; cited from earlier work.
For data set [3] the following is noted: Wistar rats, cited from earlier work; for % of the dose excreted as this molecule: BZP dosed; for detectability in urine post-dosing / time of peak urinary level post-dosing: urine.

Values after ≈ are worked out from the molar mass of the structure shown. Where a name gives a salt, the structure may show the parent alone.

Consider `COc1ccccc1N1CCNCC1` [1-(2-Methoxyphenyl)piperazine diHCl, 1-(2-Methoxyphenyl)piperazine], for which, in data set [1], the “% Cross-reactivity” value is on record as 3.2% and the IC50 was determined as 0.0438 µg/mL.

Regarding `Oc1cccc(N2CCNCC2)c1` [1-(3-Hydroxyphenyl)piperazine], in data set [1], the “% Cross-reactivity” value is 1.0% and the IC50 is 0.14 µg/mL (≈ 0.785 µM).

For the molecule `Cc1cccc(N2CCNCC2)c1` [1-(3-Methylphenyl)piperazine], in data set [1], the “% Cross-reactivity” value is reported as 3.9% and the IC50 turned out to be 0.0359 µg/mL (≈ 0.204 µM).

Consider `FC(F)(F)c1cccc(N2CCNCC2)c1` [1-(3-Trifluoromethylphenyl)piperazine], for which, in data set [1], the “% Cross-reactivity” value stood at 1.9% and the IC50 came to 0.0737 µg/mL (≈ 0.32 µM).

Turning to `Cc1ccc(N2CCNCC2)cc1` [1-(4-Methylphenyl)piperazine], in data set [1], the “% Cross-reactivity” value is recorded as 1.3% and the IC50 was 0.1077 µg/mL (≈ 0.611 µM).

For the molecule `c1ccc(CN2CCNCC2)cc1` [1-Benzylpiperazine, 1-benzylpiperazine], in data set [2] (in vivo), the elimination half life was 5 to 6 h and the “time at which elimination is complete” value is reported as “around 44 hrs”. Moreover, the “time to detection in plasma” value in data set [2] (oral dose of BZP hydrochloride) is not above 30 min. Besides, in the data set on MDMA immunoassay, the “concentration needed for a positive result” value is 3,000,000 ng/mL. In addition, in data set [1], the “% Cross-reactivity” value came out at 100.0% and the IC50 amounted to 0.0014 µg/mL (≈ 0.00794 µM). In data set [3], the “% of the dose excreted as this molecule” value is 6.7%, the “detectability in urine post-dosing” value is reported as “undetectable at 48hrs” and the “time of peak urinary level post-dosing” value is “around 4 hrs”.

As to `c1ccc(N2CCNCC2)cc1` [1-Phenylpiperazine], in data set [1], the “% Cross-reactivity” value was determined as 3.4% and the IC50 was determined as 0.0412 µg/mL (≈ 0.254 µM).

In the case of `c1cc2c(cc1CN1CCNCC1)OCO2` [1-Piperonylpiperazine], in data set [1], the “% Cross-reactivity” value stood at 101.5% and the concentration for half-maximal inhibition (IC50) was 0.0014 µg/mL (≈ 0.00636 µM).

In the case of `Oc1cccc(CN2CCNCC2)c1` [3-(Piperazin-1ylmethyl)phenol diHCl, 3-(Piperazin-1ylmethyl)phenol], in data set [1], the “% Cross-reactivity” value is recorded as 123.7% and the IC50 came to 0.0011 µg/mL. Besides, in data set [3], the “% of the dose excreted as this molecule” value is recorded as 2%, the “detectability in urine post-dosing” value is recorded as “detectable up to 48hrs” and the “time of peak urinary level post-dosing” value is “around 8 hrs”.

For `Oc1ccc(CN2CCNCC2)cc1` [4-OH Benzylpiperazine, 4-OH benzylpiperazine], in data set [1], the “% Cross-reactivity” value stood at 172.1% and the IC50 is 0.0008 µg/mL (≈ 0.00416 µM). In data set [3], the “% of the dose excreted as this molecule” value is recorded as 25%, the “detectability in urine post-dosing” value is “detectable up to 48hrs” and the “time of peak urinary level post-dosing” value is given as “around 8 hrs”.

Consider `Cc1cccc(CN2CCNCC2)c1` [N-(3-Methylbenzyl)piperazine diHCl, N-(3-Methylbenzyl)piperazine], for which, in data set [1], the “% Cross-reactivity” value is on record as 52.9% and the IC50 turned out to be 0.0026 µg/mL.

As to `Clc1cccc(N2CCNCC2)c1` [mCPP HCl, 1-(3-chlorophenyl)piperazine], in data set [1], the “% Cross-reactivity” value was 0.6% and the IC50 turned out to be 0.2333 µg/mL.

Usually IC50 stands for the concentration that gives 50% inhibition.
